Experimental data reported in patent publication EP4768484A1, “HETEROCYCLIC FUSED RING COMPOUND, AND COMPOSITION AND USE THEREOF” (Shenzhen TargetRx, Inc., priority 2023, dated 2025).

How the values were obtained:
Type in all cases: cell-based
Ba/F3 parental cells = assay: Cell growth inhibitory activity assay (CellTiter-Glo), Ba/F3 parental cells; settings: Mus musculus, BaF3, 72 h, CTG cell viability, read-out: IC50 Ba/F3 BCR-ABL1 Parental
In short: (§1)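 Growth inhibition is measured in engineered Ba/F3 cells carrying mutant human BCR-ABL1 and in parental Ba/F3. Compounds in dilution series are applied for 72 h, then cellular ATP is quantified with CellTiter-Glo, normalised using a T0 baseline plate, and IC50 derived by nonlinear regression.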

Ba/F3 BCR-ABL1 T315I = molecular target: T1, Ba/F3 BCR-ABL1 T315I (Homo sapiens, UniProt P00519+P11274, T315I); assay: Cell growth inhibitory activity assay (CellTiter-Glo), Ba/F3 BCR-ABL1 T315I cells; settings: 72 h, CTG cell viability
T1 construct: BCR (N-terminal fusion partner of the oncoprotein); expressed in transfected cells; host or cells: Ba/F3 (lentiviral transduction, monoclonal line)
In short: as §1

Ba/F3 BCR-ABL1 P465S = molecular target: T2, Ba/F3 BCR-ABL1 P465S (Homo sapiens, UniProt P00519+P11274, P465S); assay: Cell growth inhibitory activity assay (CellTiter-Glo), Ba/F3 BCR-ABL1 P465S cells; settings: 72 h, CTG cell viability
T2 construct: BCR (N-terminal fusion partner of the oncoprotein); expressed in transfected cells; host or cells: Ba/F3 (lentiviral transduction, monoclonal line)
Protocol: (§2) In this assay, the Celltiter-Glo (CTG) kit provided by Promega was used, and it is a homogeneous cell viability assay method. The cell viability of cultured cells was measured by quantifying ATP. K562 cells were purchased from Nanjing Kebai, product number CBP60529; Ba/F3 parental cells were purchased from RIKEN BRC, product number RCB0805; other cells containing BCR-ABL1 WT, BCR-ABL1 T315I, BCR-ABL1 T315M, BCR-ABL1 Y253H/E255K, BCR-ABL1 E255V/T3151, BCR-ABL1 A424T, BCR-ABL1 A337V, BCR-ABL1 P465S, BCR-ABL1 V468F, and BCR-ABL1 I502L were all monoclonal engineered cell lines obtained by transducting Ba/F3 parental cells with the lentivirus plasmids containing WT or corresponding mutated BCR-ABL1.
(§3) The steps of cell viability assay are as follows: • a) Cells in logarithmic growth phase were collected. Cell suspension was prepared and the cells were counted. Concentration of the cells was calculated. • b) The cell suspension was diluted to the required concentration and then added to the middle wells of a 96-well plate, and PBS was added to the edge wells. The wells with no cells and only culture medium were used as blank controls. • c) In addition to the cell plate used for compound analysis, another 96-well plate was prepared as a T0 plate, and 3-6 blank wells and 3-6 cell wells were added. The next day, CTG was used to test the cell viability as the T0 viability value of the cells. • d) The cell plate was incubated at 37 °C in a 5% CO2 incubator overnight. • e) The next day, each concentration of a compound subjected to a gradient dilution was added, and the cell plate was incubated at 37 °C in a 5% CO2 incubator for 72 h. The wells with no compound and only 0.5% DMSO were used as positive controls for cell growth. • f) CTG reagent (CellTiter-Glo kit) was added according to the manufacturer's instructions to test the cell viability value. • g) The plate was read using Biotek cytation3.0 microplate reader and the data were exported. • h) IC50 was calculated using GraphPad Prism 7.0 software.
(§4) The IC50 (half-maximal inhibitory concentration) of the compound was obtained using the following nonlinear fitting formula: Y = Bottom + (Top−Bottom)/(1+10^(∧)((LogIC50−X)*HillSlope)) [formula] • X: Log value of the compound concentration • Y: Inhibition rate (% inhibition) • Top: Maximum response • Bottom: Baseline response • HillSlope: Slope of the curve
(§5) The formula for calculating cell inhibition rate (inhibition rate %) was: [formula]

Ba/F3 BCR-ABL1 A337V = molecular target: T3, Ba/F3 BCR-ABL1 A337V (Homo sapiens, UniProt P00519+P11274, A337V); assay: Cell growth inhibitory activity assay (CellTiter-Glo), Ba/F3 BCR-ABL1 A337V cells; settings: 72 h, CTG cell viability
T3 construct: BCR (N-terminal fusion partner of the oncoprotein); expressed in transfected cells; host or cells: Ba/F3 (lentiviral transduction, monoclonal line)
Protocol: as §2, §3, §4, §5

Ba/F3 BCR-ABL1 I502L = molecular target: T4, Ba/F3 BCR-ABL1 I502L (Homo sapiens, UniProt P00519+P11274, I502L); assay: Cell growth inhibitory activity assay (CellTiter-Glo), Ba/F3 BCR-ABL1 I502L cells; settings: 72 h, CTG cell viability
T4 construct: BCR (N-terminal fusion partner of the oncoprotein); expressed in transfected cells; host or cells: Ba/F3 (lentiviral transduction, monoclonal line)
Protocol: as §2, §3, §4, §5

[1] = molecular target: T5, Ba/F3 BCR-ABL1 Y253H/E255K (Homo sapiens, UniProt P00519+P11274, E255K/Y253H); assay: Cell growth inhibitory activity assay (CellTiter-Glo), Ba/F3 BCR-ABL1 Y253H/E255K cells; settings: 72 h, CTG cell viability
T5 construct: BCR (N-terminal fusion partner of the oncoprotein); expressed in transfected cells; host or cells: Ba/F3 (lentiviral transduction, monoclonal line)
In short: as §1

K562 cells = assay: Cell growth inhibitory activity assay (CellTiter-Glo), K562 cells; settings: Homo sapiens, 72 h, CTG cell viability
In short: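 Growth inhibition of human K562 cells, sourced from Nanjing Kebai (CBP60529), was assessed with Promega's CellTiter-Glo kit, which measures viability through ATP quantification. Log-phase cells went into the inner wells of 96-well plates, with PBS in edge wells, incubated overnight at 37 °C and 5% CO2, then exposed to serially diluted compound for 72 h.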

Ba/F3 BCR-ABL1 A424T = molecular target: T6, Ba/F3 BCR-ABL1 A424T (Homo sapiens, UniProt P00519+P11274, A424T); assay: Cell growth inhibitory activity assay (CellTiter-Glo), Ba/F3 BCR-ABL1 A424T cells; settings: 72 h, CTG cell viability
T6 construct: BCR (N-terminal fusion partner of the oncoprotein); expressed in transfected cells; host or cells: Ba/F3 (lentiviral transduction, monoclonal line)
Protocol: as §2, §3, §4, §5

[2] = molecular target: T7, Ba/F3 BCR-ABL1 E255V/T315I (Homo sapiens, UniProt P00519+P11274, E255V/T315I); assay: Cell growth inhibitory activity assay (CellTiter-Glo), Ba/F3 BCR-ABL1 E255V/T315I cells; settings: 72 h, CTG cell viability
T7 construct: BCR (N-terminal fusion partner of the oncoprotein); expressed in transfected cells; host or cells: Ba/F3 (lentiviral transduction, monoclonal line)
In short: as §1

Ba/F3 BCR-ABL1 T315M = molecular target: T8, Ba/F3 BCR-ABL1 T315M (Homo sapiens, UniProt P00519+P11274, T315M); assay: Cell growth inhibitory activity assay (CellTiter-Glo), Ba/F3 BCR-ABL1 T315M cells; settings: 72 h, CTG cell viability
T8 construct: BCR (N-terminal fusion partner of the oncoprotein); expressed in transfected cells; host or cells: Ba/F3 (lentiviral transduction, monoclonal line)
In short: as §1

Ba/F3 BCR-ABL1 V468F = molecular target: T9, Ba/F3 BCR-ABL1 V468F (Homo sapiens, UniProt P00519+P11274, V468F); assay: Cell growth inhibitory activity assay (CellTiter-Glo), Ba/F3 BCR-ABL1 V468F cells; settings: 72 h, CTG cell viability
T9 construct: BCR (N-terminal fusion partner of the oncoprotein); expressed in transfected cells; host or cells: Ba/F3 (lentiviral transduction, monoclonal line)
Protocol: as §2, §3, §4, §5

Ba/F3 BCR-ABL1 WT = molecular target: T10, Ba/F3 BCR-ABL1 WT (Homo sapiens, UniProt P00519+P11274); assay: Cell growth inhibitory activity assay (CellTiter-Glo), Ba/F3 BCR-ABL1 WT cells; settings: 72 h, CTG cell viability
T10 construct: BCR (N-terminal fusion partner of the oncoprotein); expressed in transfected cells; host or cells: Ba/F3 (lentiviral transduction, monoclonal line)
In short: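 Compound dilutions applied for 72 h (37 °C, 5% CO2) to overnight-plated Ba/F3 cells, parental or engineered to express WT/mutant BCR-ABL1. ATP-based CellTiter-Glo luminescence read, referenced to day-0 viability and 0.5% DMSO wells; IC50 fitted by four-parameter logistic curve.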

SMILES	IC50 (Ba/F3 parental cells) [nM]	IC50 (Ba/F3 BCR-ABL1 T315I) [nM]	IC50 (Ba/F3 BCR-ABL1 P465S) [nM]	IC50 (Ba/F3 BCR-ABL1 A337V) [nM]	IC50 (Ba/F3 BCR-ABL1 I502L) [nM]	IC50 [1] [nM]	IC50 (K562 cells) [nM]	IC50 (Ba/F3 BCR-ABL1 A424T) [nM]	IC50 [2] [nM]	IC50 (Ba/F3 BCR-ABL1 T315M) [nM]	IC50 (Ba/F3 BCR-ABL1 V468F) [nM]	IC50 (Ba/F3 BCR-ABL1 WT) [nM]
[2H]C([2H])([2H])C([2H])(n1cc2c(n1)-c1cc(-c3cc(C(=O)Nc4ccc(OC(F)(F)Cl)cc4)cc4nc5n(c34)[C@H](C)COC5)cnc1C2)C([2H])([2H])[2H] [T-54]	> 1000	≤ 5	5 to 50	5 to 50	5 to 50	≤ 5	≤ 5	5 to 50	≤ 5	> 1000	5 to 50	≤ 5
C[C@@H]1COCc2nc3cc(C(=O)Nc4ccc(OC(F)(F)Cl)cc4)cc(-c4cnc5c(c4)-c4nn(C6CC6)cc4C5)c3n21 [T-57, (R)-N-(4-(chlorodifluoromethoxy)phenyl)-6-(2-cyclopropyl-2,4-dihydropyrazolo[3',4':3,4]cyclopenta[1,2-b]pyridin-7-yl)-4-methyl-3,4-dihydro-1H-benzo[4,5]imidazo[2,1-c][1,4]oxazine-8-carboxamide]	> 1000	≤ 5	50 to 1000	5 to 50	5 to 50	5 to 50	≤ 5	5 to 50	≤ 5	> 1000	5 to 50	≤ 5
C[C@@H]1COCc2nc3cc(C(=O)Nc4ccc(OC(F)(F)Cl)cc4)cc(-c4cnc5c(c4)-c4nn(-c6ncccn6)cc4C5)c3n21 [T-65]	> 1000	≤ 5	5 to 50	≤ 5	≤ 5	≤ 5	≤ 5	≤ 5	≤ 5	≤ 5	5 to 50	≤ 5
C[C@@H]1COCc2nc3cc(C(=O)Nc4ccc(OC(F)(F)Cl)cc4)cc(-c4cnc5c(c4)-c4nn(-c6cncnc6)cc4C5)c3n21 [T-66, (R)-N-(4-(chlorodifluoromethoxy)phenyl)-4-methyl-6-(2-(pyrimidin-5-yl)-2,4-dihydropyrazolo[3',4':3,4]cyclopenta[1,2-b]pyridin-7-yl)-3,4-dihydro-1H-benzo[4,5]imidazo[2,1-c][1,4]oxazine-8-carboxamide]	> 1000	5 to 50	50 to 1000	50 to 1000	50 to 1000	50 to 1000	≤ 5	5 to 50	50 to 1000	> 1000	50 to 1000	≤ 5
C[C@@H]1COCc2nc3cc(C(=O)Nc4ccc(OC(F)(F)Cl)cc4)cc(-c4cnc5c(c4)-c4c(cnn4-c4nccc(C#N)n4)C5)c3n21 [T-69-A, (R)-N-(4-(chlorodifluoromethoxy)phenyl)-6-(1-(4-cyanopyrimidin-2-yl)-1,4-dihydropyrazolo[3',4':3,4]cyclopenta[1,2-b]pyridin-7-yl)-4-methyl-3,4-dihydro-1H-benzo[4,5]imidazo[2,1-c][1,4]oxazine-8-carboxamide]	> 1000	5 to 50	50 to 1000	50 to 1000	50 to 1000	5 to 50	≤ 5	50 to 1000	5 to 50	50 to 1000	> 1000	≤ 5
C[C@@H]1COCc2nc3cc(C(=O)Nc4ccc(OC(F)(F)Cl)cc4)cc(-c4cnc5c(c4)-c4nn(-c6nccc(C#N)n6)cc4C5)c3n21 [T-69-B, (R)-N-(4-(chlorodifluoromethoxy)phenyl)-6-(2-(4-cyanopyrimidin-2-yl)-2,4-dihydropyrazolo[3',4':3,4]cyclopenta[1,2-b]pyridin-7-yl)-4-methyl-3,4-dihydro-1H-benzo[4,5]imidazo[2,1-c][1,4]oxazine-8-carboxamide]	> 1000	≤ 5	50 to 1000	50 to 1000	≤ 5	5 to 50	≤ 5	5 to 50	≤ 5	≤ 5	50 to 1000	≤ 5
C[C@@H]1COCc2nc3cc(C(=O)Nc4ccc(OC(F)(F)Cl)cc4)cc(-c4cnc5c(c4)-c4nn(-c6cnccn6)cc4C5)c3n21 [T-71, (R)-N-(4-(chlorodifluoromethoxy)phenyl)-4-methyl-6-(2-(pyrazin-2-yl)-2,4-dihydropyrazolo[3',4':3,4]cyclopenta[1,2-b]pyridin-7-yl)-3,4-dihydro-1H-benzo[4,5]imidazo[2,1-c][1,4]oxazine-8-carboxamide]	> 1000	≤ 5	50 to 1000	50 to 1000	5 to 50	≤ 5	≤ 5	5 to 50	≤ 5	5 to 50	50 to 1000	≤ 5
